# Reference: patent publication US10294202B2, “Pyrrolidinones as herbicides” (FMC Corporation, priority 2013, dated 2019)
# Assays:
# [1] = tested on: barnyardgrass; assay: Test A pre-/postemergence herbicide test; format: in vivo, Echinochloa crus-galli
# Summary of the method: (§1)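 Formulated compound (non-phytotoxic solvent, surfactant) sprayed pre- onto soil of seeded loam/sand pots or post- onto seedlings at 1–2 leaves; ~10 d greenhouse; 0–100 visual control rating versus untreated.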
# [2] = tested on: crabgrass, large; assay: Test A pre-/postemergence herbicide test; format: in vivo, Digitaria sanguinalis
# Summary of the method: as §1
# [3] = tested on: giant foxtail; assay: Test A pre-/postemergence herbicide test; format: in vivo, Setaria faberii
# Summary of the method: as §1
# [4] = tested on: morningglory; assay: Test A pre-/postemergence herbicide test; format: in vivo, Ipomoea spp.
# Summary of the method: as §1
# [5] = tested on: pigweed; assay: Test A pre-/postemergence herbicide test; format: in vivo, Amaranthus retroflexus
# Summary of the method: as §1
# [6] = tested on: velvetleaf; assay: Test A pre-/postemergence herbicide test; format: in vivo, Abutilon theophrasti
# Summary of the method: as §1
# [7] = tested on: wheat; assay: Test A pre-/postemergence herbicide test; format: in vivo, Triticum aestivum
# Summary of the method: as §1
# [8] = tested on: corn; assay: Test A pre-/postemergence herbicide test; format: in vivo, Zea mays
# Summary of the method: as §1
# [9] = tested on: rice; assay: Test B flooded paddy test; format: in vivo, Oryza sativa; conditions: Flood, scale of 0 to 100 where 0 is no effect and 100 is complete control
# Summary of the method: (§2)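 First, plants reach the 2-leaf stage; next, pots are flooded to 3 cm and compound is delivered into the water; finally, after 13 to 15 greenhouse days at constant depth, injury is graded visually from 0 to 100 against controls.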
# [10] = tested on: sedge, umbrella; assay: Test B flooded paddy test; format: in vivo, Cyperus difformis; conditions: Flood, scale of 0 to 100 where 0 is no effect and 100 is complete control
# Summary of the method: as §2
# [11] = tested on: ducksalad; assay: Test B flooded paddy test; format: in vivo, Heteranthera limosa; conditions: Flood, scale of 0 to 100 where 0 is no effect and 100 is complete control
# Summary of the method: as §2
# [12] = tested on: barnyardgrass; assay: Test B flooded paddy test; format: in vivo, Echinochloa crus-galli; conditions: Flood, scale of 0 to 100 where 0 is no effect and 100 is complete control
# Summary of the method: as §2
# [13] = Postemergence, 125 g ai/ha, 0 to 100 scale, 0 is no effect, 100 is complete control
# [14] = Postemergence, 500 g ai/ha, 0 to 100 scale (0 no effect, 100 complete control)
# [15] = Preemergence, 125 g ai/ha, 0 to 100 scale where 0 is no effect and 100 is complete control
# [16] = preemergence, 500 g ai/ha, 0 to 100 scale, 0 is no effect and 100 is complete control
# [17] = Postemergence, 125 g ai/ha, 0 to 100 scale, 0 no effect, 100 complete control
# [18] = Preemergence, 125 g ai/ha, visual rating on 0 to 100 scale (0 no effect, 100 complete control)
# [19] = preemergence, 500 g ai/ha, 0 to 100 scale
structure (smiles),measurement,setting,value
O=C1NCC(c2ccc(C(F)(F)F)c(Cl)c2)C1C(=O)Nc1ccccc1C(F)(F)F (racemic) [Compound 251],"Plant response rating, Barnyardgrass",[1]; [13],0
same,"Plant response rating, Barnyardgrass",[1]; [14],30
same,"Plant response rating, Barnyardgrass",[1]; [15],20
same,"Plant response rating, Barnyardgrass",[1]; [16],80
same,"Plant response rating, Crabgrass, Large",[2]; [13],0
same,"Plant response rating, Crabgrass, Large",[2]; [14],30
same,"Plant response rating, Crabgrass, Large",[2]; [15],80
same,"Plant response rating, Crabgrass, Large",[2]; [16],90
same,"Plant response rating, Foxtail, Giant",[3]; [13],0
same,"Plant response rating, Foxtail, Giant",[3]; [14],20
same,"Plant response rating, Foxtail, Giant",[3]; [15],40
same,"Plant response rating, Foxtail, Giant",[3]; [16],80
same,"Plant response rating, Morningglory",[4]; [13],0
same,"Plant response rating, Morningglory",[4]; [14],0
same,"Plant response rating, Morningglory",[4]; [15],0
same,"Plant response rating, Morningglory",[4]; [16],0
same,"Plant response rating, Pigweed",[5]; [13],0
same,"Plant response rating, Pigweed",[5]; [14],20
same,"Plant response rating, Pigweed",[5]; [15],0
same,"Plant response rating, Pigweed",[5]; [16],30
same,"Plant response rating, Velvetleaf",[6]; [13],0
same,"Plant response rating, Velvetleaf",[6]; [14],0
same,"Plant response rating, Velvetleaf",[6]; [15],0
same,"Plant response rating, Velvetleaf",[6]; [16],0
same,"Plant response rating, Wheat",[7]; [13],0
same,"Plant response rating, Wheat",[7]; [14],0
same,"Plant response rating, Wheat",[7]; [15],0
same,"Plant response rating, Wheat",[7]; [16],0
same,"Plant response rating, Corn",[8]; [13],0
same,"Plant response rating, Corn",[8]; [14],0
same,"Plant response rating, Corn",[8]; [15],0
same,"Plant response rating, Corn",[8]; [16],0
same,"Plant response rating, Rice",[9]; 1000 g ai/ha,0
same,"Plant response rating, Sedge, Umbrella",[10]; 1000 g ai/ha,0
same,"Plant response rating, Ducksalad",[11]; 1000 g ai/ha,90
same,"Plant response rating, Barnyardgrass",[12]; 1000 g ai/ha,45
COc1cccc(NC(=O)C2C(=O)NCC2c2ccc(F)c(F)c2)n1 (stereo not drawn) [Compound 58],"Plant response rating, Barnyardgrass",[1]; [17],0
same,"Plant response rating, Barnyardgrass",[1]; [14],0
same,Barnyardgrass plant response rating,[1]; [18],0
same,"Plant response rating, Barnyardgrass","[1]; preemergence, 500 g ai/ha, 0 to 100 scale (0 no effect, 100 complete control)",20
same,"Plant response rating, Crabgrass, Large",[2]; [17],40
same,"Plant response rating, Crabgrass, Large",[2]; [14],80
same,"Crabgrass, Large plant response rating",[2]; [18],70
same,"Plant response rating, Crabgrass, Large",[2]; [19],90
same,"Plant response rating, Foxtail, Giant",[3]; [17],20
same,"Plant response rating, Foxtail, Giant",[3]; [14],70
same,"Foxtail, Giant plant response rating",[3]; [18],20
same,"Plant response rating, Foxtail, Giant",[3]; [19],80
same,"Plant response rating, Morningglory",[4]; [17],0
same,"Plant response rating, Morningglory",[4]; [14],0
same,Morningglory plant response rating,[4]; [18],0
same,"Plant response rating, Morningglory",[4]; [19],0
same,"Plant response rating, Pigweed",[5]; [17],0
same,"Plant response rating, Pigweed",[5]; [14],0
same,Pigweed plant response rating,[5]; [18],0
same,"Plant response rating, Pigweed",[5]; [19],0
same,"Plant response rating, Velvetleaf",[6]; [17],0
same,"Plant response rating, Velvetleaf",[6]; [14],0
same,Velvetleaf plant response rating,[6]; [18],0
same,"Plant response rating, Velvetleaf",[6]; [19],0
same,"Plant response rating, Wheat",[7]; [17],0
same,"Plant response rating, Wheat",[7]; [14],0
same,Wheat plant response rating,[7]; [18],0
same,"Plant response rating, Wheat",[7]; [19],0
same,"Plant response rating, Corn",[8]; [17],0
same,"Plant response rating, Corn",[8]; [14],0
same,Corn plant response rating,[8]; [18],0
same,"Plant response rating, Corn",[8]; [19],0
same,"Plant response rating, Rice",[9]; 250 g ai/ha,0
same,"Plant response rating, Sedge, Umbrella",[10]; 250 g ai/ha,0
same,"Plant response rating, Ducksalad",[11]; 250 g ai/ha,0
same,"Plant response rating, Barnyardgrass",[12]; 250 g ai/ha,0
